Source: ChEMBL document CHEMBL1142268, “Histone deacetylase inhibitors: from bench to clinic” (J Med Chem, 2008)
Each block holds one molecule with its values, some of them ahead of it.

Legend:
Histone deacetylase [1] = assay: Inhibition of HDAC from human Jurkat cells
Jurkat = assay: Inhibition of human Jurkat cells; assay type: functional, cell-based
SK-BR-3 = assay: Antiproliferative activity against human SKBR3 cells; assay type: functional, cell-based
MKN-45 = assay: Antiproliferative activity against human MKN45 cells; assay type: functional, cell-based
MCF7 = assay: Inhibition of human MCF7 cells; assay type: functional, cell-based
HCT-116 [2] = assay: Inhibition of human HCT116 cells; assay type: functional, cell-based
A549 [3] = assay: Antitumor activity against human A549 cells xenografted in nude mouse model at 20 mg/kg, ip; assay type: functional; conditions: route intraperitoneal, read-out: TGI
HCT-116 [4] = assay: Antitumor activity against human HCT116 cells xenografted in nude mouse model at 20 mg/kg, ip; assay type: functional; conditions: HCT-116, ip, route intraperitoneal, read-out: TGI
SW48 = assay: Antitumor activity against human SW48 cells xenografted in nude mouse model at 20 mg/kg, ip; assay type: functional; conditions: route intraperitoneal, read-out: TGI
SW-620 = assay: Inhibition of human SW620 cells; assay type: functional, cell-based
[5] = Inhibition of human CCD1059SK cells; assay type: functional, cell-based
A549 [6] = assay: cells; conditions: Homo sapiens
Description: Antiproliferative activity against human A549 cells

Histone deacetylase [7] = assay: Inhibition of HDAC from human HeLa cells; assay type: cell-based
Histone deacetylase 8 = target: T1, Histone deacetylase 8 (Homo sapiens, UniProt Q9BY41)
T1 sequence (Q9BY41 whole entry): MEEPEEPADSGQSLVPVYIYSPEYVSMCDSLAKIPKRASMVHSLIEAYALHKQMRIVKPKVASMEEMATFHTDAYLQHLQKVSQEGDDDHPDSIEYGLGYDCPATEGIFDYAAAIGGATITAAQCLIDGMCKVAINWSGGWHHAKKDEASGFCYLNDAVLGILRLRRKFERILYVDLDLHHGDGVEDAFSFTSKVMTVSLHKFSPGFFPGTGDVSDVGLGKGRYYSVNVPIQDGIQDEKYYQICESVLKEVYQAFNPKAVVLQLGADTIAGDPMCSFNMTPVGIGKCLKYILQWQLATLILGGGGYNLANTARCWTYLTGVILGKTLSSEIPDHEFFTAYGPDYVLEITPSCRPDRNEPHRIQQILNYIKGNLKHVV
Description: Inhibition of human HDAC8

NCI-H460 = assay: Inhibition of human NCI-H460 cells; assay type: functional, cell-based
MDA-MB-231 = assay: Inhibition of human MDA-MB-231 cells; assay type: functional, cell-based
SNB-78 = assay: Inhibition of human SNB78 cells; assay type: functional, cell-based
NCI-H226 = assay: Inhibition of human NCI-H226 cells; assay type: functional, cell-based
LOX IMVI = assay: Inhibition of human LOX-IMVI cells; assay type: functional, cell-based
SK-OV-3 = assay: Inhibition of human SKOV3 cells; assay type: functional, cell-based
[8] = Inhibition of human RFX631L cells; assay type: functional
St-4 = assay: Inhibition of human St4 cells; assay type: functional, cell-based
DU-145 = assay: Inhibition of human DU145 cells; assay type: functional, cell-based
[9] = target: Histone deacetylase (Homo sapiens) (UniProt Q13547+O15379+Q9UBN7+Q92769+Q9UQL6+Q8WUI4+Q9BY41+Q96DB2+P56524+Q9UKV0+Q969S8); assay: Inhibition of HDAC from human HeLa cells at 1000 nM; assay type: cell-based
HCT-116 [10] = assay: Antitumor activity against human HCT116 cells xenografted in ip dosed nude mouse assessed as tumor volume inhibition; assay type: functional
COLO 205 = assay: Inhibition of human CoLo205 cells; assay type: functional
Histone deacetylase 1 = Histone deacetylase 1 (Homo sapiens, UniProt Q13547); assay: Inhibition of HDAC1 from human HeLa cells; assay type: cell-based
Sequence of Histone deacetylase 1 (Q13547 whole entry): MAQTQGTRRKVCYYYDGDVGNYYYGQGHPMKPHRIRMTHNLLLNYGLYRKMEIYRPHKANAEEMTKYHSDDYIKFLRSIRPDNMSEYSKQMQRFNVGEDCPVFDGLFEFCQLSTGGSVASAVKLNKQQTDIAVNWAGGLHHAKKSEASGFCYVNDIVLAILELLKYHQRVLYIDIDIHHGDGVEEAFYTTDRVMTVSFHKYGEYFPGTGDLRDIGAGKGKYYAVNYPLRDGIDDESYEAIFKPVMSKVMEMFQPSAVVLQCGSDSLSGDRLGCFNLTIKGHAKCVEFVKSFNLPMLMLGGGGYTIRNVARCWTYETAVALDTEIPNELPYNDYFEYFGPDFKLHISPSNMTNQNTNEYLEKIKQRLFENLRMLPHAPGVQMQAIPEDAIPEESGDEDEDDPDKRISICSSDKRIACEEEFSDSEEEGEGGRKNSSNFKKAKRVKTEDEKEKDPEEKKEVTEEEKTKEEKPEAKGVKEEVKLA

[11] = Metabolic stability in human liver microsomes; assay type: ADME, Microsome
[12] = Antiproliferative activity against human MDA435 cells; assay type: functional, cell-based; conditions: MDA-MB-435
Histone deacetylase [13] = assay: Inhibition of HDAC from human K562 cells; assay type: cell-based
HT-1080 = assay: Inhibition of human HT1080 cells; assay type: functional, cell-based
Histone deacetylase [14] = assay: Inhibition of HDAC from human SNU16 cells; conditions: snu-16

Compound: COc1ccc(CN(CCO)Cc2ccc(C(=O)Nc3ccccc3N)cc2)cc1
IC50 (SK-BR-3): 3.4 µM | IC50 (MCF7): 4.9 µM | IC50 (HCT-116 [2]): 0.8 µM | IC50 (SW-620): 2.1 µM | IC50 [5]: 18.4 µM | IC50 (A549 [6]): 17.3 µM

Compound: O=C(CCCCCNC(=S)CS)Nc1ccccc1
IC50 (Histone deacetylase [7]): 13.3 µM | IC50 (Histone deacetylase 8): > 40 µM

Compound: CC(C)C(=O)SCCCCCCC(=O)Nc1nc(-c2ccccc2)cs1
EC50 (NCI-H460): 2 µM | EC50 (MDA-MB-231): 2.3 µM | EC50 (SNB-78): 9.1 µM | EC50 (HCT-116 [2]): 3 µM | EC50 (NCI-H226): 2.6 µM | EC50 (LOX IMVI): 1.1 µM | EC50 (SK-OV-3): 4.5 µM | EC50 [8]: 2.4 µM | EC50 (St-4): 5 µM | EC50 (DU-145): 4.5 µM

Compound: CC(=O)SCC(=O)NCCCCCC(=O)Nc1ccccc1
IC50 (Histone deacetylase [7]): 20.1 µM | IC50 (Histone deacetylase 8): > 40 µM

Compound: O=C(/C=C/c1cccc(NS(=O)(=O)Cc2ccccc2)c1)NO
inhibition [9]: 23%

Compound: CC(C)C(=O)SCCCCCCC(=O)Nc1ccccc1
EC50 (NCI-H460): 20 µM

Compound: COc1ccc(NCc2ccc(C(=O)Nc3cc(-c4cccs4)ccc3N)cc2)cc1OC
Inhibition (HCT-116 [10]): 72%

Compound: CNC(=O)C(=O)CCCCCCC(=O)Nc1nc(-c2cccnc2)cs1
IC50 [12]: 2 µM | IC50 (Histone deacetylase [13]): 0.0043 µM | IC50 (HT-1080): 0.67 µM

Compound: CN(C)c1ccc(C(=O)NCc2ccc(/C=C/C(=O)NO)cc2)cc1
IC50 (SK-BR-3): 0.16 µM | IC50 (MKN-45): 0.83 µM | IC50 (Histone deacetylase [14]): 0.172 µM | IC50 (A549 [6]): 0.48 µM

Compound: O=C(CS)NCCCCCC(=O)Nc1ccccc1
IC50 (Histone deacetylase 8): 3.89 µM

Compound: O=C(/C=C/c1ccc(CNC(=O)c2cccnc2)cc1)NO
IC50 (SK-BR-3): 1.28 µM | IC50 (MKN-45): 4.98 µM | IC50 (Histone deacetylase [14]): 0.37 µM | IC50 (A549 [6]): 2.89 µM

Compound: Cn1cc(CN(CCO)Cc2ccc(C(=O)Nc3ccccc3N)cc2)c2ccccc21
IC50 (SK-BR-3): 6.9 µM | IC50 (MCF7): 8.4 µM | IC50 (HCT-116 [2]): 5.7 µM | IC50 (SW-620): 4.5 µM | IC50 [5]: 28.3 µM | IC50 (A549 [6]): 20.8 µM

Now from value to molecule, other results behind:

IC50 (Histone deacetylase [1]): 0.14 µM | IC50 (Jurkat): 0.16 µM
Compound: O=C(/C=C/c1ccc(CCc2nc3ccccc3[nH]2)cc1)NO

IC50 (SK-BR-3): 0.87 µM | IC50 (MKN-45): 4.16 µM | IC50 (MCF7): 4.3 µM | IC50 (HCT-116 [2]): 0.5 µM | IC50 (SW-620): 3.2 µM | IC50 [5]: 65 µM | IC50 (A549 [6]): 3.58 µM
Compound: Nc1ccccc1NC(=O)c1ccc(CNC(=O)OCc2cccnc2)cc1 [ENTINOSTAT]
inhibition in vivo at 20 mg/kg (A549 [3]): 46% | inhibition in vivo at 20 mg/kg (HCT-116 [4]): 56% | inhibition in vivo at 20 mg/kg (SW48): 68%

IC50 (SK-BR-3): 3.6 µM | IC50 (MCF7): 10.4 µM | IC50 (HCT-116 [2]): 0.8 µM | IC50 (SW-620): 3.6 µM | IC50 [5]: 94.8 µM | IC50 (A549 [6]): 24.2 µM
Compound: Nc1ccccc1NC(=O)c1ccc(CN(CCO)Cc2ccc(F)c(F)c2)cc1

GI50 (COLO 205): 0.26 µM
Compound: CC(C)(C)NCc1c(-c2ccccc2)nc2cc(/C=C/C(=O)NO)ccn12

IC50 (SK-BR-3): 3.9 µM | IC50 (MCF7): 10 µM | IC50 (HCT-116 [2]): 0.9 µM | IC50 (SW-620): 3.3 µM | IC50 [5]: 19.4 µM | IC50 (A549 [6]): 20.5 µM
Compound: Nc1ccccc1NC(=O)c1ccc(CN(CCO)Cc2ccccc2)cc1

IC50 (Histone deacetylase 1): 0.73 µM | microsomal CLint [11]: > 300 µL/min/mg
Compound: COc1ccc2[nH]c(C)c(CC(=O)N[C@@H](CCCCCC(C)=O)C(=O)NCCc3c(-c4ccccc4)[nH]c4ccccc34)c2c1

IC50 (Histone deacetylase [1]): 0.028 µM | IC50 (Jurkat): 0.069 µM
Compound: O=C(/C=C/c1ccc(Cc2nc3ccccc3[nH]2)cc1)NO

IC50 (Histone deacetylase [7]): > 40 µM | IC50 (Histone deacetylase 8): > 40 µM
Compound: O=C(CO)NCCCCCC(=O)Nc1ccccc1
